Data set [1] has as its system Brassica rapa subsp. pekinensis. As to the kind of experiment: Phytotoxicity against Brassica rapa subsp. pekinensis (Chinese cabbage) cv. Kinshu seedling assessed as root growth inhibition at 1 x 10' -6 to 1 x 10' -3 M. In kind it is organism-based. The following applies: in vivo.
Data set [2] deals with Lactuca sativa. As to the kind of experiment: Growth promoting activity in Lactuca sativa cv. Gokuwase-CISCO (lettuce) seedling hypocotyl at 1 x 10' -6 to 1 x 10' -3 M. In kind it is functional, organism-based.
Data set [3] concerns Oryza sativa. The data set is described as follows: Growth promoting activity in Oryza sativa cv. Koshihikari (rice) seedling root at 1 x 10' -5 M relative to control. It counts as functional, organism-based.
In data set [4] the test system is Vigna mungo. As to the kind of experiment: Phytotoxicity against Vigna mungo (black gram) seedling assessed as root growth inhibition at 1 x 10' -6 to 1 x 10' -3 M. The following applies: in vivo. It counts as organism-based.
For data set [5], the system named is Oryza sativa. The data set is described as follows: Growth promoting activity in Oryza sativa cv. Koshihikari (rice) seedling root at 1 x 10' -4 M relative to control. In kind it is functional.
In data set [6] the test system is Lactuca sativa. As to the kind of experiment: Phytotoxicity against Lactuca sativa cv. Gokuwase-CISCO (lettuce) seedling assessed as root necrosis at 1 x 10' -3 M. It counts as organism-based. The following applies: in vivo, 1000 µM.
The test system of data set [7] is Brassica rapa subsp. pekinensis. The data set is described as follows: Growth promoting activity in Brassica rapa subsp. pekinensis (Chinese cabbage) cv. Kinshu seedling root at 1 x 10' -6 to 1 x 10' -3 M. It counts as functional, organism-based.
Data set [8] deals with Vigna mungo. As to the kind of experiment: Phytotoxicity against Vigna mungo (black gram) seedling assessed as hypocotyl growth inhibition at 1 x 10' -6 to 1 x 10' -3 M. In kind it is organism-based. The following applies: in vivo.
Data set [9] has as its system Vigna mungo. As to the kind of experiment: Growth promoting activity in Vigna mungo (black gram) seedling hypocotyl at 1 x 10' -6 to 1 x 10' -3 M. In kind it is functional, organism-based.
Data set [10] concerns Vigna mungo. As to the kind of experiment: Growth promoting activity in Vigna mungo (black gram) seedling root at 1 x 10' -6 to 1 x 10' -3 M. It counts as functional, organism-based.
The subject of data set [11] is Oryza sativa. The data set is described as follows: Growth promoting activity in Oryza sativa cv. Koshihikari (rice) seedling shoot at 1 x 10' -5 M. It counts as functional, organism-based.
Data set [12] concerns Lactuca sativa. As to the kind of experiment: Phytotoxicity against Lactuca sativa cv. Gokuwase-CISCO (lettuce) seedling assessed as hypocotyl necrosis at 1 x 10' -3 M. In kind it is organism-based. The following applies: in vivo, 1000 µM.
For data set [13], the system named is Oryza sativa. The data set is described as follows: Phytotoxicity against Oryza sativa cv. Koshihikari (rice) seedling assessed as root necrosis at 1 x 10' -3 M. The following applies: in vivo, 1000 µM. It counts as organism-based.
In data set [14] the test system is Oryza sativa. As to the kind of experiment: Phytotoxicity against Oryza sativa cv. Koshihikari (rice) seedling assessed as shoot growth inhibition. In kind it is organism-based. The following applies: in vivo.
Data set [15] has as its system Lactuca sativa. The data set is described as follows: Growth promoting activity in Lactuca sativa cv. Gokuwase-CISCO (lettuce) seedling root at 1 x 10' -6 to 1 x 10' -3 M. In kind it is functional, organism-based.
Data set [16] concerns Lactuca sativa. As to the kind of experiment: Phytotoxicity against Lactuca sativa cv. Gokuwase-CISCO (lettuce) seedling assessed as hypocotyl growth inhibition at 1 x 10' -3 M. The following applies: in vivo, 1000 µM. It counts as organism-based.
Data set [17] concerns Oryza sativa. The data set is described as follows: Phytotoxicity against Oryza sativa cv. Koshihikari (rice) seedling assessed as root growth inhibition at 1 x 10' -3 M. It counts as organism-based. The following applies: in vivo, 1000 µM.
In data set [18] the test system is Brassica rapa subsp. pekinensis. The data set is described as follows: Growth promoting activity in Brassica rapa subsp. pekinensis (Chinese cabbage) cv. Kinshu seedling root at 1 x 10' -3 M. In kind it is functional, organism-based.
Data set [19] shares this test system. The data set is described as follows: Phytotoxicity against Brassica rapa subsp. pekinensis (Chinese cabbage) cv. Kinshu seedling assessed as root growth inhibition at 1 x 10' -4 M. It counts as organism-based. The following applies: in vivo, 100 µM.

Structures are written as SMILES. Activity calls are given as the source filed them. No cut-off for these calls is given here.

The source of these data is ChEMBL document CHEMBL3046650, “Hydrogenated and Dichiorinated N-Phthaloyl-L-threonines and Their Dehydrated Phthalimides with Root Growth-promoting Activity for Rice Seedings” (J Pestic Sci, 2000).

Take `C/C=C(/C(=O)O)N1C(=O)[C@H]2CCCC[C@H]2C1=O`: the Activity entry was “Non-toxic” in data set [1]; “Non-toxic” with Vigna mungo [4]; “Toxic” in the data set on Lactuca sativa [6]; “Non-toxic” in the data set with Vigna mungo [8]; “Toxic” in the data set with Lactuca sativa [12]; “Non-toxic” with Oryza sativa [13]. For the same compound, the Activity result in the data set with Oryza sativa [14] was “Non-toxic”. Besides, the result (with Lactuca sativa [2]; with Oryza sativa [3]; in data set [7]; in the data set on Vigna mungo [9]; in the data set on Vigna mungo [10]; with Lactuca sativa [15]) was inactive. Also, the “fold change (FC)” value with Oryza sativa [5] came to 2.1. Further, the result in the data set with Oryza sativa [11] was Active.

Take `C[C@@H](O)[C@@H](C(=O)O)N1C(=O)[C@H]2CCCC[C@@H]2C1=O` [TRANS-1,2,3,4,5,6-HEXAHYDROPHTHALOYL-L-THREONINE]: the Activity result in data set [1] is “Non-toxic”; in the data set with Lactuca sativa [16] it was “Toxic”; in the data set with Vigna mungo [4], “Non-toxic”; in the data set with Lactuca sativa [6] it was “Toxic”; in the data set with Vigna mungo [8], “Non-toxic”; in the data set with Oryza sativa [13], “Non-toxic”. Further, in the data set with Oryza sativa [14], the Activity result is “Non-toxic”. In addition, the result (in the data set with Lactuca sativa [2]; with Oryza sativa [3]; in [7]; in the data set on Vigna mungo [9]; with Vigna mungo [10]; in the data set with Lactuca sativa [15]) was inactive. Besides, in the data set on Oryza sativa [5], the “fold change (FC)” value amounted to 1.6.

`C/C=C(/C(=O)O)N1C(=O)[C@H]2CCCC[C@@H]2C1=O` (relative stereo): the Activity result in data set [1] is listed as “Non-toxic”; in the data set with Lactuca sativa [16], “Toxic”; in the data set on Vigna mungo [4], “Non-toxic”; in the data set with Lactuca sativa [6], “Toxic”; in the data set with Vigna mungo [8] it was “Non-toxic”; in the data set on Oryza sativa [13], “Non-toxic”. The Activity entry in the data set on Oryza sativa [14] is given as “Non-toxic”. Further, the outcome (with Lactuca sativa [2]; in the data set on Oryza sativa [3]; in [7]; in the data set on Vigna mungo [9]; in the data set on Vigna mungo [10]; in the data set with Lactuca sativa [15]) was inactive. Also, in the data set on Oryza sativa [5], the “fold change (FC)” value is 2.1.

As to `C[C@@H](O)[C@@H](C(=O)O)N1C(=O)c2ccccc2C1=O` [N PHTHALOYL-L-THREONINE], the Activity entry was “Non-toxic” in data set [1]; “Toxic” in the data set with Lactuca sativa [16]; “Non-toxic” in the data set with Vigna mungo [4]; “Toxic” in the data set with Lactuca sativa [6]; “Non-toxic” in the data set on Vigna mungo [8]; “Toxic” in the data set on Oryza sativa [17]. The result (in the data set with Lactuca sativa [2]; in data set [7]; with Vigna mungo [9]; in the data set with Vigna mungo [10]; in the data set on Lactuca sativa [15]) was inactive. The result with Oryza sativa [3] was Active. In addition, in the data set with Oryza sativa [5], the “fold change (FC)” value turned out to be 1.6.

Consider `C/C=C(/C(=O)O)N1C(=O)c2cc(Cl)c(Cl)cc2C1=O` [4,5-Cl2P-BTEA], for which the Activity result in [1] was “Non-toxic”; in the data set with Vigna mungo [4] it was “Non-toxic”; in the data set with Lactuca sativa [6], “Toxic”; in the data set on Vigna mungo [8] it was “Non-toxic”; in the data set on Lactuca sativa [12] it was “Toxic”; with Oryza sativa [13] it was “Non-toxic”. Also, the result (with Lactuca sativa [2]; in data set [7]; in the data set on Vigna mungo [9]; with Vigna mungo [10]; with Lactuca sativa [15]) was inactive. Moreover, the outcome in the data set with Oryza sativa [3] was Active. Besides, the “fold change (FC)” value with Oryza sativa [5] is 2.1.

`C[C@@H](O)[C@@H](C(=O)O)N1C(=O)c2cc(Cl)c(Cl)cc2C1=O` [N-(4,5-DICHLOROPHTHALOYL)-L-THREONINE]: the Activity entry is on record as “Non-toxic” in data set [1]; “Non-toxic” with Vigna mungo [4]; “Toxic” in the data set with Lactuca sativa [6]; “Non-toxic” in the data set on Vigna mungo [8]; “Toxic” in the data set with Lactuca sativa [12]; “Non-toxic” in the data set with Oryza sativa [13]. Besides, the outcome (with Lactuca sativa [2]; in data set [7]; in the data set with Vigna mungo [9]; with Vigna mungo [10]; with Lactuca sativa [15]) was inactive. The result with Oryza sativa [3] was Active. Also, in the data set with Oryza sativa [5], the “fold change (FC)” value came out at 1.6.

Turning to `C[C@@H](O)[C@@H](C(=O)O)N1C(=O)[C@H]2CCCC[C@H]2C1=O` [CIS-1,2,3,4,5,6-HEXAHYDROPHTHALOYL-L-THREONINE], the Activity result in [1] was “Non-toxic”; in the data set with Vigna mungo [4] it was “Non-toxic”; with Lactuca sativa [6] it was “Toxic”; in the data set on Vigna mungo [8] it was “Non-toxic”; with Lactuca sativa [12], “Toxic”; in the data set on Oryza sativa [13] it was “Non-toxic”. In addition, the Activity entry in the data set with Oryza sativa [14] is “Non-toxic”. Further, the result (with Lactuca sativa [2]; with Oryza sativa [3]; in data set [7]; in the data set on Vigna mungo [9]; in the data set on Vigna mungo [10]; in the data set on Lactuca sativa [15]) was inactive. In addition, in the data set with Oryza sativa [5], the “fold change (FC)” value is reported as 1.6. For the same compound, in the data set with Oryza sativa [11], the outcome was Active.

For `C/C=C(/C(=O)O)N1C(=O)c2ccccc2C1=O`, the outcome in the data set with Lactuca sativa [2], in the data set on Vigna mungo [9], in the data set on Vigna mungo [10] and in the data set on Lactuca sativa [15] was inactive. Also, the result (in the data set on Oryza sativa [3]; in data set [18]) was Active. In addition, the Activity result was “Toxic” in the data set with Lactuca sativa [16]; “Non-toxic” in the data set with Vigna mungo [4]; “Toxic” in the data set on Lactuca sativa [6]; “Non-toxic” with Vigna mungo [8]; “Toxic” with Oryza sativa [17]. The “fold change (FC)” value in the data set with Oryza sativa [5] stood at 2.1.

On to `C[C@@H](O)[C@@H](C(=O)O)N1C(=O)C2=C(CCCC2)C1=O` [N-(3,4,5,6-TETRAHYDROPHTHALOYL)-L-THREONINE], for which the Activity result in [1] is given as “Non-toxic”; with Lactuca sativa [16] it was “Toxic”; with Vigna mungo [4], “Non-toxic”; in the data set on Lactuca sativa [6], “Toxic”; in the data set on Vigna mungo [8], “Non-toxic”; in the data set with Oryza sativa [13], “Toxic”. The outcome (with Lactuca sativa [2]; in the data set with Oryza sativa [3]; in [7]; in the data set with Vigna mungo [9]; in the data set with Vigna mungo [10]; in the data set with Lactuca sativa [15]) was inactive. In the data set on Oryza sativa [5], the “fold change (FC)” value turned out to be 1.6. The outcome in the data set with Oryza sativa [11] was Active.

For the compound `C[C@@H](O)[C@@H](C(=O)O)N1C(=O)[C@H]2CC=CC[C@H]2C1=O` [CIS-1,2,3,6-TETRAHYDROPHTHALOYL-L-THREONINE], the Activity result in data set [1] is recorded as “Non-toxic”; with Vigna mungo [4], “Non-toxic”; in the data set on Lactuca sativa [6] it was “Toxic”; in the data set with Vigna mungo [8] it was “Non-toxic”; with Lactuca sativa [12] it was “Toxic”; in the data set on Oryza sativa [13] it was “Non-toxic”. Moreover, the outcome (in the data set on Lactuca sativa [2]; in the data set with Oryza sativa [3]; in data set [7]; in the data set with Vigna mungo [9]; with Vigna mungo [10]; in the data set on Lactuca sativa [15]) was inactive. Further, the “fold change (FC)” value in the data set with Oryza sativa [5] is 1.6.

Regarding `C/C=C(/C(=O)O)N1C(=O)C2=C(CCCC2)C1=O`, the result with Lactuca sativa [2], in the data set on Oryza sativa [3], with Vigna mungo [9], in the data set on Vigna mungo [10] and with Lactuca sativa [15] was inactive. Moreover, the Activity entry in the data set with Lactuca sativa [16] was “Toxic”; in the data set with Vigna mungo [4], “Non-toxic”; in the data set with Lactuca sativa [6] it was “Toxic”; in the data set with Vigna mungo [8] it was “Non-toxic”; with Oryza sativa [13] it was “Toxic”; in data set [19] it was “Toxic”. The “fold change (FC)” value with Oryza sativa [5] is listed as 2.1. Further, the outcome (in data set [18]; in the data set with Oryza sativa [11]) was Active.

Consider `C/C=C(/C(=O)O)N1C(=O)[C@H]2CC=CC[C@H]2C1=O`, for which the result in the data set with Lactuca sativa [2], in the data set with Oryza sativa [3], in the data set with Vigna mungo [9], with Vigna mungo [10] and in the data set on Lactuca sativa [15] was inactive. The Activity entry with Lactuca sativa [16] is given as “Toxic”; in the data set on Vigna mungo [4], “Non-toxic”; in the data set with Lactuca sativa [6], “Toxic”; in the data set with Vigna mungo [8] it was “Non-toxic”; in the data set with Oryza sativa [13], “Non-toxic”. Also, the “fold change (FC)” value in the data set on Oryza sativa [5] was determined as 2.1. For the same compound, in data set [18], the result was Active.
